Common to all, as to experiment: relative viability (nuclei count vs DMSO), 5 days (fraction); higher = more cells survive
Compound in assay [1]: Cc1ccc(C(=O)Nc2cccc(C(F)(F)F)c2)cc1Nc1cncc(C(N)=O)c1 [ALW-II-49-7] + CC(=O)c1c(C)c2cnc(Nc3ccc(N4CCNCC4)cn3)nc2n(C2CCCC2)c1=O [Palbociclib] (partner 0.5 µM)
The essentials: (§1)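 Nuclei were stained with Hoechst during a one-step fixation (final 0.05% Triton X-100, 1% formaldehyde, 1 ug/ml Hoechst) carried out 5 days after dosing, then counted on 4× images. The cells, lung cancer lines in 1536-well plates, had been dosed by pin tool the day after seeding with one drug alone or a fixed anchor-drug dose plus five library-drug doses (not always all listed) in √10 steps. Relative viability is the nuclei count in treated wells divided by that in vehicle wells, and each value is the median of duplicate plates.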

Compound in assay [2]: Cc1ccc(C(=O)Nc2cccc(C(F)(F)F)c2)cc1Nc1cncc(C(N)=O)c1 [ALW-II-49-7] + CC(C)C[C@H](NC(=O)[C@H](Cc1ccccc1)NC(=O)c1cnccn1)B(O)O [Bortezomib] (partner 0.002 µM)
A digest of the protocol: as §1

Compound in assay [3]: Cc1ccc(C(=O)Nc2cccc(C(F)(F)F)c2)cc1Nc1cncc(C(N)=O)c1 [ALW-II-49-7] + Nc1ncn([C@H]2C[C@H](O)[C@@H](CO)O2)c(=O)n1 [Decitabine] (partner 2 µM)
The essentials:
as §1

Compound in assay [4]: Cc1nc(Nc2ncc(C(=O)Nc3c(C)cccc3Cl)s2)cc(N2CCN(CCO)CC2)n1 [Dasatinib] + CC1(C)CCC(c2ccc(Cl)cc2)=C(CN2CCN(c3ccc(C(=O)NS(=O)(=O)c4ccc(N[C@H](CCN5CCOCC5)CSc5ccccc5)c(S(=O)(=O)C(F)(F)F)c4)cc3)CC2)C1 [Navitoclax] (partner 0.5 µM)
A digest of the protocol:
as §1

Consider UMC-11, for which the relative viability in assay [1] (first compound 0.08 µM) is 0.345; in assay [1] (first compound 0.253 µM) it was 0.348; in assay [1] (first compound 0.8 µM) it was 0.33; in assay [1] (first compound 2.53 µM), 0.295; in assay [1] (first compound 8 µM), 0.274; in assay [2] (first compound 0.08 µM), 0.514. The relative viability in assay [2] (first compound 0.253 µM) was found to be 0.786; in assay [2] (first compound 2.53 µM), 0.792; in assay [2] (first compound 8 µM) it was 0.521; in assay [3] (first compound 0.08 µM) it was 0.642; in assay [3] (first compound 0.253 µM) it was 0.663; in assay [3] (first compound 0.8 µM) it was 0.58. Further, the relative viability is 0.419 in assay [3] (first compound 2.53 µM); 0.552 in assay [3] (first compound 8 µM); 0.308 in assay [4] (first compound 0.005 µM); 0.247 in assay [4] (first compound 0.01581 µM); 0.275 in assay [4] (first compound 0.05 µM); 0.246 in assay [4] (first compound 0.1581 µM). The relative viability in assay [4] (first compound 0.5 µM) is 0.241.

The values are drawn from the supplement of paper PMC10307832.
